These results are taken from PubChem BioAssay AID330 (DTP/NCI, 2004).

In the assay the test system is P388 leukemia ip, CD2F1 mice, survival T/C. Kind of assay: NCI In Vivo Anticancer Drug Screen. Data for tumor model P388 Leukemia (intraperitoneal) in CD2F1 (CDF1) mice. As to conditions: endpoint: median survival time, higher = longer survival. In a few lines:
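Mice carrying the transplanted tumor received test compound or vehicle. Survival was recorded in each group, and the value is the treated-group measurement divided by that of the vehicle-treated control group.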

Setting [1] is: dose: 50.0 mg/kg/injection, schedule: Q01DX009 (ip), vehicle: saline with Tween-80.
Where [2] appears, read: dose: 100.0 mg/kg/injection, schedule: Q01DX009 (ip), vehicle: saline with Tween-80.
[3] abbreviates: dose: 200.0 mg/kg/injection, schedule: Q01DX009 (ip), vehicle: saline with Tween-80.
[4] abbreviates: dose: 50.0 mg/kg/injection, schedule: Q01DX005 (ip), vehicle: saline with Tween-80.
Setting [5] is: dose: 100.0 mg/kg/injection, schedule: Q01DX005 (ip), vehicle: saline with Tween-80.
Where [6] appears, read: dose: 50.0 mg/kg/injection, schedule: Q01DX009 (ip), vehicle: saline.
[7] abbreviates: dose: 100.0 mg/kg/injection, schedule: Q01DX009 (ip), vehicle: saline.
Setting [8] is: dose: 200.0 mg/kg/injection, schedule: Q01DX009 (ip), vehicle: saline.
Where [9] appears, read: dose: 100.0 mg/kg/injection, schedule: Q04DX002 (ip), vehicle: Klucel (hydroxypropylcellulose) (HPC).
The mark [10] stands for this setting: dose: 200.0 mg/kg/injection, schedule: Q04DX002 (ip), vehicle: Klucel (hydroxypropylcellulose) (HPC).
[11] abbreviates: dose: 400.0 mg/kg/injection, schedule: Q04DX002 (ip), vehicle: Klucel (hydroxypropylcellulose) (HPC).
Where [12] appears, read: dose: 60.0 mg/kg/injection, schedule: Q01DX005 (ip), vehicle: Klucel (hydroxypropylcellulose) (HPC).
[13] abbreviates: dose: 120.0 mg/kg/injection, schedule: Q01DX005 (ip), vehicle: Klucel (hydroxypropylcellulose) (HPC).
Setting [14] is: dose: 240.0 mg/kg/injection, schedule: Q01DX005 (ip), vehicle: Klucel (hydroxypropylcellulose) (HPC).

Values joined by “and” are separate entries in the source; they are usually repeats but may differ in a detail not shown here. Identical values can stand only once. Inconclusive results and toxic doses are left out.

On to `Cc1ccc(S(=O)(=O)NC(=O)Nc2ncn[nH]2)cc1`, for which the T/C runs as follows: under setting [1], 99 % of control; under setting [2], 98 % of control; under setting [3], 104 % of control.

In the case of `Cc1cc(=O)n(-c2cccc3ccccc23)c(C)c1C(=O)O`, the T/C under setting [4] is 102 % of control and the T/C under setting [5] is 94 % of control.

Turning to `C=C(COC(=O)/C=C\C)C(=O)OCC`, the T/C by setting is: under setting [6], 106 % of control; under setting [7], 99 % of control; under setting [8], 106 % of control.

As to `CCNC(=O)N(CC(=O)NC)c1ncc([N+](=O)[O-])s1`, the T/C runs as follows: under setting [9], 103 % of control; under setting [10], 101 % of control; under setting [11], 108 % of control.

As to `CCC1(CC)C(=O)NC(=O)[N]([Sn]([CH2]C)([CH2]C)[N]2C(=O)NC(=O)C(CC)(CC)C2=O)C1=O`, the T/C by setting is: (dose: 1.56 mg/kg/injection, schedule: Q01DX005 (ip), vehicle: Klucel (hydroxypropylcellulose) (HPC)) 90 % of control; (dose: 3.12 mg/kg/injection, schedule: Q01DX005 (ip), vehicle: Klucel (hydroxypropylcellulose) (HPC)) 111 % of control and 117 % of control; (dose: 6.25 mg/kg/injection, schedule: Q01DX005 (ip), vehicle: Klucel (hydroxypropylcellulose) (HPC)) 120 % of control; (dose: 12.5 mg/kg/injection, schedule: Q01DX005 (ip), vehicle: Klucel (hydroxypropylcellulose) (HPC)) 111 % of control.

As for `NCCCN=c1ccc2c3c1c(O)c1c(O)ccc(=O)c1c3[nH]n2CCNCCO`, the T/C runs as follows: (dose: 3.12 mg/kg/injection, schedule: Q04DX002 (ip), vehicle: saline) 165 % of control; (dose: 3.12 mg/kg/injection, schedule: Q04DX002 (ip), vehicle: water) 165 % of control; (dose: 6.25 mg/kg/injection, schedule: Q04DX002 (ip), vehicle: saline) 165 % of control; (dose: 6.25 mg/kg/injection, schedule: Q04DX002 (ip), vehicle: water) 172 % of control; (dose: 9.72 mg/kg/injection, schedule: Q04DX002 (ip), vehicle: water) 196 % of control; (dose: 12.5 mg/kg/injection, schedule: Q04DX002 (ip), vehicle: saline) 190 % of control. Further, the T/C (dose: 12.5 mg/kg/injection, schedule: Q04DX002 (ip), vehicle: water) was 177 % of control; the T/C (dose: 16.2 mg/kg/injection, schedule: Q04DX002 (ip), vehicle: water) was 199 % of control; the T/C (dose: 17.0 mg/kg/injection, schedule: Q01DX001 (ip), vehicle: water) was 268 % of control; the T/C (dose: 25.0 mg/kg/injection, schedule: Q04DX002 (ip), vehicle: saline) is 207 % of control; the T/C (dose: 25.0 mg/kg/injection, schedule: Q04DX002 (ip), vehicle: water) is 250 % of control; the T/C (dose: 27.0 mg/kg/injection, schedule: Q04DX002 (ip), vehicle: water) was 245 % of control. The T/C reads like this: (dose: 45.0 mg/kg/injection, schedule: Q04DX002 (ip), vehicle: water) 323 % of control; (dose: 50.0 mg/kg/injection, schedule: Q04DX002 (ip), vehicle: saline) 254 % of control; (dose: 50.0 mg/kg/injection, schedule: Q04DX002 (ip), vehicle: water) 272 % of control.

As for `CN1Cc2ccccc2[C@H]2C(c3ccccc3)=NN(c3ccccc3)[C@H]21`, the T/C runs as follows: under setting [4], 103 % of control; under setting [5], 94 % of control; (dose: 200.0 mg/kg/injection, schedule: Q01DX005 (ip), vehicle: saline with Tween-80) 92 % of control.

As for `c1ccc2c(c1)[nH]c1c2nc2sccn21`, the T/C reads like this: under setting [12], 115 % of control; under setting [13], 115 % of control; under setting [14], 116 % of control.

For the molecule `COc1ccc(C(=O)CCc2cccc(NC(=O)CCl)c2)cc1`, the T/C was 91 % of control (dose: 60.0 mg/kg/injection, schedule: Q01DX005 (ip), vehicle: saline with Tween-80); 100 % of control (dose: 120.0 mg/kg/injection, schedule: Q01DX005 (ip), vehicle: saline with Tween-80); 102 % of control (dose: 240.0 mg/kg/injection, schedule: Q01DX005 (ip), vehicle: saline with Tween-80).

Turning to `C/C(=N\NS(=O)(=O)c1ccc(C)cc1)c1cccs1`, the T/C by setting is: (dose: 50.0 mg/kg/injection, schedule: Q01DX009 (ip), vehicle: Klucel (hydroxypropylcellulose) (HPC)) 100 % of control; (dose: 100.0 mg/kg/injection, schedule: Q01DX009 (ip), vehicle: Klucel (hydroxypropylcellulose) (HPC)) 91 % of control; (dose: 200.0 mg/kg/injection, schedule: Q01DX009 (ip), vehicle: Klucel (hydroxypropylcellulose) (HPC)) 92 % of control.

Take `CCC1SC2=NCCN2C1(O)c1ccc(Cl)cc1` (stereo not drawn): the T/C by setting is: under setting [12], 96 % of control; under setting [13], 95 % of control; under setting [14], 89 % of control.

Consider `O=C(/C=C/c1ccc(O)cc1)OCC1OC(Oc2cc(O)c3c(c2)OC(c2ccc(O)cc2)CC3=O)C(O)C(O)C1O` (stereo not drawn), for which the T/C is, setting by setting: (dose: 100.0 mg/kg/injection, schedule: Q04DX002 (ip), vehicle: saline) 107 % of control; (dose: 200.0 mg/kg/injection, schedule: Q04DX002 (ip), vehicle: saline) 94 % of control; (dose: 400.0 mg/kg/injection, schedule: Q04DX002 (ip), vehicle: saline) 107 % of control.

Regarding `O=C([OH2+])C[N]1C(=O)C[NH][Ga]1[Cl].O=C([OH2+])C[N]1C(=O)C[NH][Ga]1[Cl]`, the T/C (dose: 50.0 mg/kg/injection, schedule: Q01DX005 (ip), vehicle: Klucel (hydroxypropylcellulose) (HPC)) is 108 % of control; the T/C (dose: 100.0 mg/kg/injection, schedule: Q01DX005 (ip), vehicle: Klucel (hydroxypropylcellulose) (HPC)) was 100 % of control; the T/C (dose: 200.0 mg/kg/injection, schedule: Q01DX005 (ip), vehicle: Klucel (hydroxypropylcellulose) (HPC)) was 98 % of control.

Consider `N#Cc1cccc(/C=C\C(=O)c2ccccc2)c1`, for which the T/C by setting is: under setting [6], 88 % of control; under setting [7], 100 % of control; under setting [8], 92 % of control.

Take `C#CCNC(=O)/C(C)=C(\C)c1ccc(F)cc1`: the T/C runs as follows: (dose: 50.0 mg/kg/injection, schedule: Q04DX002 (ip), vehicle: Klucel (hydroxypropylcellulose) (HPC)) 101 % of control; under setting [9], 103 % of control; under setting [10], 111 % of control.

On to `Nc1n[nH]c2c3c([nH]c(=O)c12)-c1ccccc1SC3`, for which the T/C is, setting by setting: under setting [9], 102 % of control; under setting [10], 88 % of control; under setting [11], 86 % of control.

In the case of `COC1CC(NC(C)=O)C(OC(=O)c2ccccc2)C(CBr)O1` (stereo not drawn), the T/C (dose: 1.56 mg/kg/injection, schedule: Q01DX009 (ip), vehicle: other) was 94 % of control; the T/C (dose: 3.13 mg/kg/injection, schedule: Q01DX009 (ip), vehicle: other) was 94 % of control; the T/C (dose: 6.25 mg/kg/injection, schedule: Q01DX009 (ip), vehicle: other) is 106 % of control; the T/C (dose: 12.5 mg/kg/injection, schedule: Q01DX009 (ip), vehicle: other) was 108 % of control; the T/C (dose: 25.0 mg/kg/injection, schedule: Q01DX009 (ip), vehicle: other) was 100 % of control and 106 % of control; the T/C (dose: 50.0 mg/kg/injection, schedule: Q01DX009 (ip), vehicle: other) is 101 % of control. Also, the T/C by setting is: (dose: 100.0 mg/kg/injection, schedule: Q01DX009 (ip), vehicle: other) 104 % of control; (dose: 200.0 mg/kg/injection, schedule: Q01DX009 (ip), vehicle: other) 97 % of control; (dose: 400.0 mg/kg/injection, schedule: Q01DX009 (ip), vehicle: other) 92 % of control.

For the molecule `O=S(=O)(OC1=CCCCC1)C(F)(F)F`, the T/C is 100 % of control under setting [1]; 109 % of control under setting [2]; 112 % of control under setting [3]; 115 % of control (dose: 400.0 mg/kg/injection, schedule: Q01DX009 (ip), vehicle: saline with Tween-80).
